One assay deals with L929. The assay can be described thus: Cytotoxicity against mouse L929 cells assessed as reduction in cell viability by MTT assay. It is filed as functional, cell-based. In general terms: Tetrazolium dyes change colour on reduction, which living cells bring about.
The next assay has as its system Wickerhamomyces anomalus. The assay can be described thus: Antimicrobial activity against Pichia anomala DSM6766 by serial dilution method. The class given is functional.
Assay [1] concerns Mycolicibacterium smegmatis. Put plainly: Antimicrobial activity against Mycobacterium smegmatis DSM44200 by serial dilution method. It is filed as functional.
The next assay deals with Mucor hiemalis. The assay can be described thus: Antimicrobial activity against Mucor hiemalis DSM2656 by serial dilution method. It is filed as functional.
The subject of a further assay is Staphylococcus aureus. The assay can be described thus: Antimicrobial activity against Staphylococcus aureus DSM346 by serial dilution method. It is filed as functional.
The next assay relates to Micrococcus luteus. The assay can be described thus: Antimicrobial activity against Micrococcus luteus DSM1790 by serial dilution method. It is filed as functional.
The next assay concerns KB 3-1. The assay can be described thus: Cytotoxicity against human KB3.1 cells assessed as reduction in cell viability by MTT assay. It is filed as functional, cell-based.
The next assay relates to Candida albicans. The assay can be described thus: Antimicrobial activity against Candida albicans DSM1665 by serial dilution method. The class given is functional.
For another assay, the system named is Bacillus subtilis. The assay can be described thus: Antimicrobial activity against Bacillus subtilis DSM10 by serial dilution method. It is filed as functional.
Setting [2] is: Mus musculus, L929, read-out: IC50.

≈ marks a conversion by molar mass, not a printed value. Calls of active or inactive are those of the source. The calls are words filed in the database; no cut-off is given here.

As usually defined, the IC50 is the concentration at which inhibition is half-maximal. Broadly, the MIC is the lowest concentration that inhibits growth of the organism. Consider `COc1c(O)c2c(c3cnc4c(c13)C(=O)C=C(C)C4=O)[C@@H](C(C)C)CC[C@@H]2C`, for which the IC50 entry in the assay with L929 (l929) and in the assay on KB 3-1 was “Not Active” throughout. The MIC in the assay with Wickerhamomyces anomalus (Hansenula anomala) was 100 µg/mL (≈ 264 µM); with Mucor hiemalis, 50 µg/mL (≈ 132 µM); in the assay with Staphylococcus aureus it was 50 µg/mL (≈ 132 µM); against Micrococcus luteus, 6.3 µg/mL (≈ 16.6 µM); against Candida albicans, 100 µg/mL (≈ 264 µM); with Bacillus subtilis, 6.3 µg/mL (≈ 16.6 µM). Besides, the MIC result in assay [1] is “inactive”.

Turning to `NC[C@H]1O[C@H](O[C@H]2[C@H](O)[C@@H](O[C@H]3O[C@H](CO)[C@@H](O)[C@H](N)[C@H]3O)[C@H](N)C[C@@H]2N)[C@H](O)[C@@H](O)[C@@H]1O` [KANAMYCIN], it took 0.6 µg/mL (≈ 1.24 µM) to inhibit growth in assay [1] (MIC).

As for NYSTATIN, the MIC with Wickerhamomyces anomalus was found to be 4.6 µg/mL; against Mucor hiemalis, 9.2 µg/mL; against Candida albicans, 9.2 µg/mL.

GENTAMICIN showed an MIC with Staphylococcus aureus of 9.2 µg/mL.

Turning to `C/C(=C\c1csc(C)n1)[C@@H]1C[C@@H]2O[C@]2(C)CCC[C@H](C)[C@H](O)[C@@H](C)C(=O)C(C)(C)[C@@H](O)CC(=O)O1` [PATUPILONE], the IC50 with L929 (setting [2]) came out at 2.6 nM.

For `CN(C)[C@@H]1C(O)=C(C(N)=O)C(=O)[C@@]2(O)C(O)=C3C(=O)c4c(O)cccc4[C@@](C)(O)[C@H]3[C@H](O)[C@@H]12` [OXYTETRACYCLINE], the MIC in the assay with Micrococcus luteus turned out to be 0.3 µg/mL (≈ 0.652 µM); with Bacillus subtilis it was 9.2 µg/mL (≈ 20 µM).

In the case of `CC1=CC(=O)C(c2c(C=O)c(O)c(O)c3c2[C@@H](C(C)C)CC[C@@H]3C)=C(O)C1=O`, the IC50 is 5500 nM in the assay with L929 (setting [2]) and “Not Active” with KB 3-1. The MIC was 100 µg/mL (≈ 260 µM) in the assay on Wickerhamomyces anomalus (Hansenula anomala); 100 µg/mL (≈ 260 µM) in [1]; 25 µg/mL (≈ 65 µM) in the assay on Mucor hiemalis; 50 µg/mL (≈ 130 µM) with Staphylococcus aureus; 3.1 µg/mL (≈ 8.06 µM) in the assay on Micrococcus luteus; 100 µg/mL (≈ 260 µM) against Candida albicans. 12.5 µg/mL (≈ 32.5 µM) was the least that counted as inhibitory against Bacillus subtilis (MIC).

The values are drawn from ChEMBL document CHEMBL4665748, “Heimiomycins A-C and Calamenens from the African Basidiomycete Heimiomyces sp” (J Nat Prod, 2020).
